Assays:
Type in all cases: in vivo
human HCT-8 colon cancer = test: Transplanted human HCT-8 colon cancer in nude mice; conditions: 5 mg/kg i.p. twice a week for 4 weeks; day 30
Description: The establishing method is basically the same as that in Example 10.
Observing the tumor growth of the nude mice inoculated with the human HCT-8 colon cancer and, when the tumor volume is about 50-100 mm^3, screening according to the size of the tumor volume, with the too large tumor and minor tumor not selected.
The above nude mice inoculated with human HCT-8 colon cancer were divided into the following seven groups (8 mice/group) for administration, intraperitoneally injecting twice a week successively for 4 weeks, and ending the test on the 30th day (D30).
(§1) At the end of experiment, tumors were removed after euthanasia, and the tumor weight were measured. The treatment effect was measured by the ratio of tumor size in the testing group (T) versus the control group (C), i.e. T/C %.
After the first treatment, the long and short diameters of the tumor were measured twice a week, and the tumor volume V and the relative tumor volume RTV thereof (Vt/VO) were calculated
At day 30, each animal was euthanized, and its tumor was removed and weighted and the average tumor weight in each group was calculated.

[1] = tested on: human Ls-174-T colon cancer; test: Transplanted human Ls-174-T colon cancer in nude mice; conditions: 5 mg/kg i.p. twice a week for 4 weeks; day 29
Method: Two nude mice were prepared to serve as tumor bearing mice. 1×10^7 of human Ls-174-T colon cancer cells (purchased from Cell Preservation Center of Shanghai Institutes for Biological Sciences, Chinese Academy of Sciences) at the log-growth cycle, or tumor mass in a size of about 1.5 mm^3, were inoculated subcutaneously into the right armpit of these two nude mice. […]
as §1
After the first administration, both the long and short diameters of tumors were recorded twice a week, and tumor volume (V) and the relative tumor volume (RTV) were calculated. The calculation formula for RTV is: RTV=Vt/Vo, where Vt is the tumor volume measured at each time point (day), and Vo is the initial (before administration) tumor volume.
At day 29, each animal was euthanized, and its tumor was removed and weighted and the average tumor weight in each group was calculated.

[2] = tested on: human MDA-MB-231 breast cancer; test: Transplanted human MDA-MB-231 breast cancer in nude mice; conditions: 5 mg/kg i.p. twice a week for 5 weeks; day 36
Description: The tumor model establishment is basically the same as that in Example 10.
(§2) Nude mice were inoculated with human MDA-MB-231 breast cancer. When the tumor volume reached about 50-100 mm^3, a screening was done and those mice bearing tumors too small or too large in size were excluded. The selected mice were then randomly divided into different groups for different doses of drugs
The above nude mice inoculated with human MDA-MB-231 breast cancer were divided into the following five treatment groups (7 mice/group). Antibodies were injected intraperitoneally twice a week for 5 weeks, and ending the test on the 36th day (D36).
as §1
(§3) After the first administration, the long and short diameters of the tumor were measured twice a week, and the tumor volume (V) and the relative tumor volume RTV thereof (Vt/VO) were calculated.
At day 36, each animal was euthanized, and its tumor was removed and weighted and the average tumor weight in each group was calculated.

[3] = tested on: human A673 rhabdomyosarcoma; test: Transplanted human A673 rhabdomyosarcoma in nude mice; conditions: 5 mg/kg i.p. twice a week for 3 weeks; day 22
Description: The establishment of this tumor method is basically the same as that in Example 10.
as §2, with “A673 rhabdomyosarcoma.” for “MDA-MB-231 breast cancer.”
Dividing the above nude mice inoculated with the human A673 rhabdomyosarcoma into the following six groups (6 mice/group) for administration, intraperitoneally injecting twice a week successively for 3 weeks, and ending the test on the 22nd day (D22).
as §1, §3
At day 22, each animal was euthanized, and its tumor was removed and weighted and the average tumor weight in each group was calculated.

Row | Compound | average tumor weight (human HCT-8 colon cancer) [g] | tumor weight inhibition rate (human HCT-8 colon cancer) [%] | average tumor weight [1] [g] | tumor weight inhibition rate [1] [%] | average tumor weight [2] [g] | tumor weight inhibition rate [2] [%] | average tumor weight [3] [g] | tumor weight inhibition rate [3] [%]
1 | N.N.[Cl][Pt][Cl] [cisplatin, reference compound] | 1.201 | 25.29 |  |  |  |  |  | 
2 | Avastin: humanized anti-VEGF monoclonal antibody drug developed and produced by Roche/Genentech [reference compound] |  |  | 0.767 | 74.05 | 0.543 | 38.99 | 3.323 | 61.92

Reference: US9580498B2, “Monoclonal antibody for antagonizing and inhibiting binding of vascular endothelial growth factor to its receptor, and coding sequence” (SUZHOU STAINWEI BIOTECH INC., priority 2012, dated 2017)
